Assay: xn = mol fraction of the nth substance listed
Details: Liquid; for mass density: Vibrating tube method; for viscosity: Concentric cylinders viscometry

C=CCCCC [hex-1-ene] + CCCCO
Details | mass density, 273.15 K [kg/m3] | mass density, 293.15 K [kg/m3] | mass density, 313.15 K [kg/m3] | mass density, 333.15 K [kg/m3] | viscosity, 293.15 K [mPa·s] | viscosity, 303.15 K [mPa·s] | viscosity, 313.15 K [mPa·s]
100 kPa, x1 = 0.1001 | 808.1 | 792.4 | 776.5 | 759.7 | – | – | –
100 kPa, x1 = 0.3999 | 764.1 | 747 | 729.5 | 711.1 | – | – | –
100 kPa, x1 = 0.5018 | 751.4 | 734 | 716 | 697.2 | – | – | –
100 kPa, x1 = 0.5997 | 739 | 721.2 | 702.9 | 683.7 | – | – | –
100 kPa, x1 = 0.9 | 700.4 | 681.8 | 662.7 | 642.8 | – | – | –
100 kPa, x1 = 1 | 691.5 | 672.8 | 653.8 | 634 | – | – | –
100 kPa, x2 = 0 | – | – | – | – | 0.28 | 0.257 | 0.236
100 kPa, x2 = 0.1001 | – | – | – | – | 0.316 | 0.283 | 0.255
100 kPa, x2 = 0.2 | – | – | – | – | 0.355 | 0.316 | 0.285
100 kPa, x2 = 0.3002 | – | – | – | – | 0.422 | 0.369 | 0.322
100 kPa, x2 = 0.3999 | – | – | – | – | 0.522 | 0.448 | 0.386
100 kPa, x2 = 0.5018 | – | – | – | – | 0.669 | 0.565 | 0.475
100 kPa, x2 = 0.5997 | – | – | – | – | 0.86 | 0.703 | 0.595
100 kPa, x2 = 0.7002 | – | – | – | – | 1.159 | 0.938 | 0.763
100 kPa, x2 = 0.7999 | – | – | – | – | 1.558 | 1.24 | 0.997
100 kPa, x2 = 0.9 | – | – | – | – | 2.125 | 1.667 | 1.327
1000 kPa, x1 = 0.1001 | 808.5 | 793.1 | 777.2 | 760.6 | – | – | –
1000 kPa, x1 = 0.3999 | 764.6 | 747.7 | 730.4 | 712.2 | – | – | –
1000 kPa, x1 = 0.5018 | 751.9 | 734.8 | 716.9 | 698.3 | – | – | –
1000 kPa, x1 = 0.5997 | 739.5 | 722 | 703.9 | 684.9 | – | – | –
1000 kPa, x1 = 0.9 | 701 | 682.7 | 663.9 | 644.1 | – | – | –
1000 kPa, x1 = 1 | 692.1 | 673.8 | 654.9 | 635.4 | – | – | –
2000 kPa, x1 = 0.1001 | 809.3 | 793.8 | 778.1 | 761.6 | – | – | –
2000 kPa, x1 = 0.3999 | 765.4 | 748.6 | 731.4 | 713.4 | – | – | –
2000 kPa, x1 = 0.5018 | 752.7 | 735.7 | 718 | 699.6 | – | – | –
2000 kPa, x1 = 0.5997 | 740.4 | 723 | 705 | 686.3 | – | – | –
2000 kPa, x1 = 0.9 | 701.9 | 683.8 | 665.1 | 645.6 | – | – | –
2000 kPa, x1 = 1 | 693 | 674.9 | 656.2 | 636.9 | – | – | –
5000 kPa, x1 = 0.1001 | 811.3 | 796.2 | 780.6 | 764.5 | – | – | –
5000 kPa, x1 = 0.3999 | 767.7 | 751.2 | 734.3 | 716.8 | – | – | –
5000 kPa, x1 = 0.5018 | 755.1 | 738.4 | 721.1 | 703.1 | – | – | –
5000 kPa, x1 = 0.5997 | 742.8 | 725.8 | 708.2 | 690 | – | – | –
5000 kPa, x1 = 0.9 | 704.6 | 686.9 | 668.7 | 649.9 | – | – | –
5000 kPa, x1 = 1 | 695.8 | 678 | 659.9 | 641.3 | – | – | –
10000 kPa, x1 = 0.1001 | 814.6 | 799.7 | 784.6 | 768.9 | – | – | –
10000 kPa, x1 = 0.3999 | 771.4 | 755.3 | 739 | 722 | – | – | –
10000 kPa, x1 = 0.5018 | 758.9 | 742.7 | 725.9 | 708.6 | – | – | –
10000 kPa, x1 = 0.5997 | 746.7 | 730.2 | 713.2 | 695.7 | – | – | –
10000 kPa, x1 = 0.9 | 708.8 | 691.7 | 674.2 | 656.3 | – | – | –
10000 kPa, x1 = 1 | 700 | 682.9 | 665.5 | 647.8 | – | – | –
15000 kPa, x1 = 0.1001 | 817.8 | 803.2 | 788.4 | 773.1 | – | – | –
15000 kPa, x1 = 0.3999 | 774.9 | 759.2 | 743.3 | 727.1 | – | – | –
15000 kPa, x1 = 0.5018 | 762.5 | 746.7 | 730.5 | 713.8 | – | – | –
15000 kPa, x1 = 0.5997 | 750.4 | 734.4 | 718 | 701.1 | – | – | –
15000 kPa, x1 = 0.9 | 712.8 | 696.2 | 679.5 | 662.2 | – | – | –
15000 kPa, x1 = 1 | 704 | 687.5 | 670.8 | 653.9 | – | – | –
20000 kPa, x1 = 0.1001 | 820.8 | 806.5 | 792.1 | 777.2 | – | – | –
20000 kPa, x1 = 0.3999 | 778.2 | 762.9 | 747.5 | 731.6 | – | – | –
20000 kPa, x1 = 0.5018 | 766 | 750.5 | 734.8 | 718.7 | – | – | –
20000 kPa, x1 = 0.5997 | 754 | 738.3 | 722.4 | 706.1 | – | – | –
20000 kPa, x1 = 0.9 | 716.5 | 700.4 | 684.2 | 667.8 | – | – | –
20000 kPa, x1 = 1 | 707.8 | 691.8 | 675.7 | 659.5 | – | – | –
30000 kPa, x1 = 0.1001 | 826.5 | 812.8 | 799 | 784.7 | – | – | –
30000 kPa, x1 = 0.3999 | 784.4 | 769.9 | 755.2 | 740.3 | – | – | –
30000 kPa, x1 = 0.5018 | 772.4 | 757.7 | 742.7 | 728.5 | – | – | –
30000 kPa, x1 = 0.5997 | 760.6 | 745.7 | 730.6 | 715.4 | – | – | –
30000 kPa, x1 = 0.9 | 723.6 | 708.3 | 693.1 | 677.7 | – | – | –
30000 kPa, x1 = 1 | 715 | 699.8 | 684.6 | 669.5 | – | – | –
40000 kPa, x1 = 0.1001 | 831.9 | 818.6 | 805.3 | 791.6 | – | – | –
40000 kPa, x1 = 0.3999 | 790.2 | 776.3 | 762.2 | 748 | – | – | –
40000 kPa, x1 = 0.5018 | 778.4 | 764.2 | 749.9 | 736.5 | – | – | –
40000 kPa, x1 = 0.5997 | 766.8 | 752.4 | 738 | 723.5 | – | – | –
40000 kPa, x1 = 0.9 | 730.1 | 715.5 | 700.9 | 686.5 | – | – | –
40000 kPa, x1 = 1 | 721.6 | 707 | 692.6 | 678.4 | – | – | –
50000 kPa, x1 = 0.1001 | 837 | 824.1 | 811.1 | 798 | – | – | –
50000 kPa, x1 = 0.3999 | 795.7 | 782.2 | 768.7 | 755.2 | – | – | –
50000 kPa, x1 = 0.5018 | 783.9 | 770.2 | 756.5 | 743.8 | – | – | –
50000 kPa, x1 = 0.5997 | 772.3 | 758.6 | 744.7 | 731 | – | – | –
50000 kPa, x1 = 0.9 | 736.1 | 722.1 | 708.2 | 694.4 | – | – | –
50000 kPa, x1 = 1 | 727.6 | 713.7 | 699.9 | 686.3 | – | – | –
60000 kPa, x1 = 1 | 733.2 | 719.9 | 706.9 | 693.7 | – | – | –
70000 kPa, x1 = 1 | 738.7 | 725.8 | 713 | 700.5 | – | – | –

Reference: the NIST ThermoML archive (doi:10.1021/je301301j)
